Data from patent US10954269B2, “Anti-inflammatory tripeptides” (Dr. August Wolff Gmbh & Co. KG Arzneimittel, priority 2013, dated 2021).
[ ]: non-standard residue; d: D form. Aib = CC(C)(N)C(=O)O

Test system: primary murine T-cells
Assay: Cytokine secretion on protein level in activated primary murine T-cells (13-plex FACS / Luminex, supernatant)
Assay type: cell-based, C57BL/6 mice
Procedure, shortened: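 T-cells from secondary lymphatic organs of naïve C57BL/6 mice, stimulated with PMA/Ionomycin or IFN-γ; supernatant cytokines measured by 13-plex FACS 48 h and 72 h after stimulation. In another run, PMA/Ionomycin-stimulated cells received compounds at 10^−7, 10^−9 and 10^−11 M, with IFN-γ, IL-17 and IL-10 measured by Luminex.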

[1] = primary murine T-cells stimulated with IFN-γ, 10^−9M
[2] = primary murine T-cells stimulated with IFN-γ, substance 10^−9M
[3] = primary murine T-cells stimulated with PBS, 10^−9M
[4] = primary murine T-cells stimulated with PBS, substance 10^−9M
[5] = primary murine T-cells stimulated with PMA/Ionomycin, 10^−9M
[6] = primary murine T-cells stimulated with PMA/Ionomycin, 10^−9M, 1:10 dilution of the supernatants
[7] = primary murine T-cells stimulated with PMA/Ionomycin, substance 10^−9M

H-Lys-[dP]-Thr-OH [K(D)PT, reference compound]
IL-1 cytokine concentration [1]: 26.6 pg/mL | IL-2 cytokine concentration [1]: 0 pg/mL | IL-4 cytokine concentration [1]: 0 pg/mL | IL-5 cytokine concentration [1]: 0 pg/mL | IL-6 cytokine concentration [1]: 0 pg/mL | IL-10 cytokine concentration [1]: 0 pg/mL | IL-13 cytokine concentration [1]: 0 pg/mL | IL-17 cytokine concentration [1]: 0 pg/mL | IL-21 cytokine concentration [1]: 0 pg/mL | IL-22 cytokine concentration [1]: 0 pg/mL | IL-27 cytokine concentration [1]: 209.12 pg/mL | TNF-α cytokine concentration [1]: 0 pg/mL | IL-1 cytokine concentration [2]: 93.77 pg/mL | IL-2 cytokine concentration [2]: 98.22 pg/mL | IL-4 cytokine concentration [2]: 85.32 pg/mL | IL-5 cytokine concentration [2]: 271.81 pg/mL | IL-6 cytokine concentration [2]: 144.97 pg/mL | IL-10 cytokine concentration [2]: 1061 pg/mL | IL-13 cytokine concentration [2]: 0 pg/mL | IL-17 cytokine concentration [2]: 88.84 pg/mL | IL-21 cytokine concentration [2]: 0 pg/mL | IL-22 cytokine concentration [2]: 48.13 pg/mL | IL-27 cytokine concentration [2]: 0 pg/mL | TNF-α cytokine concentration [2]: 34.84 pg/mL | IFN-γ cytokine concentration [3]: 0 pg/mL | IL-1 cytokine concentration [3]: 0 pg/mL | IL-2 cytokine concentration [3]: 0 pg/mL | IL-4 cytokine concentration [3]: 0 pg/mL | IL-5 cytokine concentration [3]: 0 pg/mL | IL-6 cytokine concentration [3]: 27.81 pg/mL | IL-10 cytokine concentration [3]: 64.53 pg/mL | IL-13 cytokine concentration [3]: 0 pg/mL | IL-17 cytokine concentration [3]: 16.26 pg/mL | IL-21 cytokine concentration [3]: 0 pg/mL | IL-22 cytokine concentration [3]: 0 pg/mL | IL-27 cytokine concentration [3]: 25.93 pg/mL | TNF-α cytokine concentration [3]: 0 pg/mL | IFN-γ cytokine concentration [4]: 0 pg/mL | IL-1 cytokine concentration [4]: 60.41 pg/mL | IL-2 cytokine concentration [4]: 124.13 pg/mL | IL-4 cytokine concentration [4]: 71.69 pg/mL | IL-5 cytokine concentration [4]: 373.93 pg/mL | IL-6 cytokine concentration [4]: 124 pg/mL | IL-10 cytokine concentration [4]: 1039.39 pg/mL | IL-13 cytokine concentration [4]: 0 pg/mL | IL-17 cytokine concentration [4]: 0 pg/mL | IL-21 cytokine concentration [4]: 0 pg/mL | IL-22 cytokine concentration [4]: 78.32 pg/mL | IL-27 cytokine concentration [4]: 87.48 pg/mL | TNF-α cytokine concentration [4]: 77.74 pg/mL | IL-1 cytokine concentration [5]: 30.27 pg/mL | IL-4 cytokine concentration [5]: 71.79 pg/mL | IL-5 cytokine concentration [5]: 280.87 pg/mL | IL-6 cytokine concentration [5]: 140.97 pg/mL | IL-10 cytokine concentration [5]: 188.56 pg/mL | IL-13 cytokine concentration [5]: 4314.15 pg/mL | IL-17 cytokine concentration [5]: 423.67 pg/mL | IL-21 cytokine concentration [5]: 0 pg/mL | IL-22 cytokine concentration [5]: 333.4 pg/mL | IL-27 cytokine concentration [5]: 99.7 pg/mL | TNF-α cytokine concentration [5]: 515.54 pg/mL | IFN-γ* cytokine concentration [6]: 712.81 pg/mL | IL-2* cytokine concentration [6]: 1288.92 pg/mL | IFN-γ cytokine concentration [7]: 2117.29 pg/mL | IL-1 cytokine concentration [7]: 175.59 pg/mL | IL-2 cytokine concentration [7]: 152.69 pg/mL | IL-4 cytokine concentration [7]: 72.07 pg/mL | IL-5 cytokine concentration [7]: 238.08 pg/mL | IL-6 cytokine concentration [7]: 201.87 pg/mL | IL-10 cytokine concentration [7]: 1133.29 pg/mL | IL-13 cytokine concentration [7]: 0 pg/mL | IL-17 cytokine concentration [7]: 70.93 pg/mL | IL-21 cytokine concentration [7]: 0 pg/mL | IL-22 cytokine concentration [7]: 90.3 pg/mL | IL-27 cytokine concentration [7]: 126.71 pg/mL | TNF-α cytokine concentration [7]: 49.63 pg/mL

H-Phe-Pro-[Aib]-OH [Example 13]
IL-1 cytokine concentration [2]: 82.68 pg/mL | IL-2 cytokine concentration [2]: 237.05 pg/mL | IL-4 cytokine concentration [2]: 0 pg/mL | IL-5 cytokine concentration [2]: 342.32 pg/mL | IL-6 cytokine concentration [2]: 220.06 pg/mL | IL-10 cytokine concentration [2]: 968.94 pg/mL | IL-13 cytokine concentration [2]: 0 pg/mL | IL-17 cytokine concentration [2]: 26.88 pg/mL | IL-21 cytokine concentration [2]: 0 pg/mL | IL-22 cytokine concentration [2]: 334.1 pg/mL | IL-27 cytokine concentration [2]: 151.6 pg/mL | TNF-α cytokine concentration [2]: 52.48 pg/mL | IFN-γ cytokine concentration [4]: 5058.59 pg/mL | IL-1 cytokine concentration [4]: 64.4 pg/mL | IL-2 cytokine concentration [4]: 173.84 pg/mL | IL-4 cytokine concentration [4]: 25.55 pg/mL | IL-5 cytokine concentration [4]: 401.21 pg/mL | IL-6 cytokine concentration [4]: 168.6 pg/mL | IL-10 cytokine concentration [4]: 829.52 pg/mL | IL-13 cytokine concentration [4]: 0 pg/mL | IL-17 cytokine concentration [4]: 0 pg/mL | IL-21 cytokine concentration [4]: 0 pg/mL | IL-22 cytokine concentration [4]: 0 pg/mL | IL-27 cytokine concentration [4]: 302.6 pg/mL | TNF-α cytokine concentration [4]: 62.22 pg/mL | IFN-γ cytokine concentration [7]: 8109.91 pg/mL | IL-1 cytokine concentration [7]: 329.99 pg/mL | IL-2 cytokine concentration [7]: 260.49 pg/mL | IL-4 cytokine concentration [7]: 135.41 pg/mL | IL-5 cytokine concentration [7]: 452.71 pg/mL | IL-6 cytokine concentration [7]: 404.54 pg/mL | IL-10 cytokine concentration [7]: 1267.4 pg/mL | IL-13 cytokine concentration [7]: 0 pg/mL | IL-17 cytokine concentration [7]: 0 pg/mL | IL-21 cytokine concentration [7]: 432.64 pg/mL | IL-22 cytokine concentration [7]: 111.64 pg/mL | IL-27 cytokine concentration [7]: 387.94 pg/mL | TNF-α cytokine concentration [7]: 69.4 pg/mL
